Assays:
[1] = UV/Vis absorption spectra; format: physicochemical
Description: (§1) The UV-vis absorption spectra were taken on Cary 60 UV-vis spectrophotometer. Steady-state emission spectra at room temperature were recorded on an Edinburgh Instruments FLS980 fluorescence spectrometer. Quartz cuvettes (path length=1 cm) were used in all spectrophotometric and fluorometric measurements. NMR spectra were recorded on a Bruker AVANCE 400 (^1H NMR for 400 MHz and ^13C NMR for 100 MHz) Fourier transform NMR spectrometer with chemical shifts reported relative to tetramethylsilane, (CH3)4Si. High-resolution MS spectra were performed on an Orbitrap Fusion Tribrid mass spectrometer. Elemental analyses of the newly synthesized complexes were preformed on a Elementar Vario EL Cube elemental analyzer at Sun Yat-sen University. The nanosecond time-resolved transient-difference absorption spectra were detected by using Edinburgh LP920 instruments (Edinburgh Instruments, U.K.). All solutions for transient absorption studies were degassed on a high-vacuum line in a two-compartment cell consisting of a 10-ml Pyrex bulb and a 1-cm or 4-mm path length quartz cuvette and sealed from the atmosphere by a Bibby Rotaflo HP6 Teflon stopper. The solutions were rigorously degassed with at least four successive freeze-pump-thaw cycles. Emission lifetime measurements were performed using a conventional laser system. The excitation source used was a 355-nm output (third harmonic) of a Spectra-Physics Quanta-Ray Q-switched GCR-150-10 pulsed Nd-YAG laser. Luminescence decay signals were detected by a Hamamatsu R928 PMT and recorded on a Tektronix Model TDS-620A (500 MHz, 2 GS/s) digital oscilloscope and analyzed using a program for exponential fits. Absolute quantum yields were measured by HAMAMATSU-C11347.

[2] = Steady-state emission spectra and absolute luminescence quantum yield; format: physicochemical
Description: as §1

[3] = Nanosecond transient absorption difference spectroscopy; format: physicochemical; conditions: measured by transient absorption in CH3CN
Text: Nanosecond transient absorption (TA) difference spectroscopy was employed to investigate the triplet excited states of M-Rho (FIG. 2c and FIGS. 16-19). Upon pulsed laser excitation at 355 nm, an intense bleaching signal at 575 nm with lifetime in microsecond range is observed, which is ascribed to the depletion of ground state rhodamine absorption. Such a long-lived excited state should be localized on the rhodamine unit, and is assigned as the ^3IL excited state of rhodamine in M-Rho. The absorption signal at 610-800 nm is due to the rhodamine ^3IL excited state absorption. In contrast, no signal from this triplet excited state is detected in bpy-Rho because of the lack of efficient ISC. On the other hand, only the transient absorption signals originating from the corresponding ^3MLCT excited states are observed in the rhodamine-free analogues (FIGS. 20-21).
as §1

MCF-7 cells [4] = assay: Intracellular ROS, DCFH-DA assay; format: cell-based, human; conditions: 5 μM, 11-W lamp for 30 min
Description: The MCF-7 cells were seeded in eight-well chambered coverglasses (lab-Tek, Nunc, USA) and six-well plate, incubated for 24 h in 5% CO2 at 37° C. Next, added to compounds (bpy-Rho and M-Rho) in medium make the final concentrations of 5 μM compounds. After irradiation treatment (11 W lamp 30 min), cells were promptly washed with PBS and incubated with 4 μg/ml 2′7′-dichloro-fluoreseindiacetate (DCFH-DA) for 30 min, and intracellular ROS generation was evaluated by flow cytometry and confocal microscopy.

MCF-7 cells [5] = assay: Mitochondrial membrane potential, flow-cytometry-based JC-1 assay; format: cell-based, human; conditions: 5 uM, 11 W lamp 30 min
Description: Mitochondrial depolarization was assessed by flow cytometry after incubation with JC-1 Molecular Probes (Thermo Fisher Scientific, USA). Briefly, The MCF-7 cells were seeded in six-well plate, incubated for 24 h in 5% CO2 at 37° C. Next, added to compounds (bpy-Rho and M-Rho) in medium make the final concentrations of 5 uM compounds. After irradiation treatment (11 W lamp 30 min). The cells were resuspended in warm PBS, and incubated with JC-1 (4 μg/ml) for 30 min at 37° C. and 5% CO2. Thereafter the cells were centrifuged, resuspended in 600 μL of PBS, and analyzed immediately on a flow cytometer (Becton Dickinson, San Jose, Calif., USA). Untreated cells were used as negative controls.

4T1 = assay: Selective uptake by flow cytometry; format: cell-based, mouse; conditions: 4T1, 5 μM, 2 h incubation
Description: (§2) Tumor cells (MCF-7/A 549/HepG2/4T1) and normal cells (MCF-10A/293T/L02/NIH-3T3) (1×10^4 cells) was cultured in six-well plate for 12 h. and then Cells were changed with a medium containing 5 μM complexes (rho-bpy, rho-bpy-Pt-ph, rho-bpy-Rh-ppy, rho-bpy-Re and rho-bpy-Ir-ppy). Cells were washed three times with PBS after 2 h of incubation, Then the cells were harvested, and the fluorescence intensity of complexes were recorded by flow cytometer.

A549 = assay: Selective uptake by flow cytometry; format: cell-based, human; conditions: A549, 5 μM, 2 h incubation
Description: as §2

MCF-7 = assay: Selective uptake by flow cytometry; format: cell-based, human; conditions: MCF-7, 5 μM, 2 h incubation
Description: as §2

MCF-7 tumor-bearing mice = assay: In vivo NIRF imaging, biodistribution and tumor accumulation
Description: The procedures were approved by the Animal Care and Use Committee (Shenzhen Institutes of Advanced Technology, Chinese Academy of Sciences). Four-8-week-old female BALB/c mice or nude mice (Vital River Laboratory Animal Technology Co. Ltd., China) were subcutaneously injected with MCF-7 cells (1×10^6) in the flank region.
The Maestro GNIR Flex imaging system and analysis with software from CRi was used to image tumor-bearing animals over time following i.v. treatment with Ir-Rho (200 μM, 150 μl). At each time point, the mouse was imaged at 600 nm excitation and 650 nm emission. At 24 h post injection, tumors and major organs were excised for ex vivo NIRF imaging to determine the tissue distribution of Ir-Rho. All main organs were cut with similar thickness and imaged at 600 nm excitation and 650 nm emission. The average fluorescence intensity of organs was from a region of interest (ROI) placed over the area of the organs on the image.

[6] = Octanol-water partition coefficient
Description: Octanol-water partition coefficients (log Po/w)^[27] of bpy-Rho and M-Rho have been measured in order to study their lipophilic/hydrophilic characters. The higher is the log Po/w value associated with the dye, the higher is its lipophilic character.

[7] = ex vivo NIRF, 24 h post-injection

CCN(CC)c1ccc2c(-c3ccnc(-c4cc(C)ccn4)c3)c3ccc(=[N+](CC)CC)cc-3oc2c1.F[P-](F)(F)(F)(F)F.F[P-](F)(F)(F)(F)F.c1ccc(-c2cccc[c]2[Ir+][c]2ccccc2-c2ccccn2)nc1 [Ir-Rho]
λabs ([1]; absorption maximum, in CH3CN): 575 nm
ε × 10^4 ([1]; molar extinction coefficient at the absorption maxima, values × 10^4): 8.75 M^−1 cm^−1
λem ([2]; Conc. = 1.0 × 10^−6M in MeOH): 629 nm
Φlum ([2]; absolute luminescence quantum yield measured by HAMAMATSU-C11347): 0.014
TT (triplet-state lifetimes) [3]: 0.82 μs
intracellular ROS generation (MCF-7 cells [4]): highest ROS generation ability
ratio of JC-1 aggregates/JC-1 monomers (MCF-7 cells [5]): 1.79
contrast index (CI) (4T1): higher than 2.5
contrast index (CI) (A549): higher than 2.5
contrast index (CI) (MCF-7): higher than 2.5
liver uptake (MCF-7 tumor-bearing mice; [7]): relatively low liver uptake
tumor accumulation (MCF-7 tumor-bearing mice; [7]): good tumor accumulation
time of peak tumor uptake (MCF-7 tumor-bearing mice; i.v. injection via the tail vein, 200 μM, 150 μl): 24 h
log Po/w [6]: −0.39

Reference: patent US11214586B2, “Rhodamine triplet state complex and preparation and photodynamic therapy (PDT) study thereof” (SOUTHERN UNIVERSITY OF SCIENCE AND TECHNOLOGY, priority 2018, dated 2022)
